Data reported in PubChem BioAssay (NCI).
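Step 1: Grow cells in 96-well plates. Step 2: Expose to compound for 48 hours at 5 concentrations. Step 3: Interpolate endpoints linearly; if unreached, use highest concentration. TGI marks complete inhibition of growth.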

How the values were obtained:
Test in all cases: growth of human tumour cells (NCI), 48 h
786-0 renal = system: 786-0 renal
A498 renal = system: A498 renal
A549 NSCLC = system: A549 NSCLC
ACHN renal = system: ACHN renal
BT-549 breast = system: BT-549 breast
CCRF-CEM leukemia = system: CCRF-CEM leukemia
COLO 205 colon = system: COLO 205 colon
DU-145 prostate = system: DU-145 prostate
EKVX NSCLC = system: EKVX NSCLC
HCC-2998 colon = system: HCC-2998 colon
HCT-116 colon = system: HCT-116 colon
HCT-15 colon = system: HCT-15 colon
HL-60(TB) leukemia = system: HL-60(TB) leukemia
HOP-62 NSCLC = system: HOP-62 NSCLC
HOP-92 NSCLC = system: HOP-92 NSCLC
HS 578T breast = system: HS 578T breast
HT29 colon = system: HT29 colon
IGROV1 ovarian = system: IGROV1 ovarian
K-562 leukemia = system: K-562 leukemia
LOX IMVI melanoma = system: LOX IMVI melanoma
M14 melanoma = system: M14 melanoma
MALME-3M melanoma = system: MALME-3M melanoma
MCF7 breast = system: MCF7 breast
MDA-MB-231 breast = system: MDA-MB-231 breast
MDA-N = system: MDA-N
MOLT-4 leukemia = system: MOLT-4 leukemia
NCI-H226 lung = system: NCI-H226 lung
NCI-H23 lung = system: NCI-H23 lung
NCI-H460 lung = system: NCI-H460 lung
NCI-H522 lung = system: NCI-H522 lung
NCI/ADR-RES ovarian = system: NCI/ADR-RES ovarian
OVCAR-5 ovarian = system: OVCAR-5 ovarian
OVCAR-8 ovarian = system: OVCAR-8 ovarian
PC-3 prostate = system: PC-3 prostate
RPMI-8226 leukemia = system: RPMI-8226 leukemia
RXF 393 renal = system: RXF 393 renal
SF-268 CNS = system: SF-268 CNS
SF-295 CNS = system: SF-295 CNS
SK-MEL-2 melanoma = system: SK-MEL-2 melanoma
SK-MEL-28 melanoma = system: SK-MEL-28 melanoma
SK-MEL-5 melanoma = system: SK-MEL-5 melanoma
SK-OV-3 ovarian = system: SK-OV-3 ovarian
SN12C renal = system: SN12C renal
SNB-19 CNS = system: SNB-19 CNS
SNB-75 CNS = system: SNB-75 CNS
SR leukemia = system: SR leukemia
SW-620 colon = system: SW-620 colon
T-47D breast = system: T-47D breast
TK-10 renal = system: TK-10 renal
U251 CNS = system: U251 CNS
UACC-257 melanoma = system: UACC-257 melanoma
UACC-62 melanoma = system: UACC-62 melanoma
UO-31 renal = system: UO-31 renal
CAKI-1 renal = system: CAKI-1 renal
KM12 colon = system: KM12 colon
OVCAR-3 ovarian = system: OVCAR-3 ovarian
OVCAR-4 ovarian = system: OVCAR-4 ovarian
SF-539 CNS = system: SF-539 CNS

## CN(C)c1nc2nonc2nc1Nc1ccccc1
786-0 renal
  TGI: > 100 µM
A498 renal
  TGI: > 100 µM
A549 NSCLC
  TGI: > 100 µM
ACHN renal
  TGI: > 100 µM
BT-549 breast
  TGI: > 100 µM
CCRF-CEM leukemia
  TGI: > 100 µM
COLO 205 colon
  TGI: > 100 µM
DU-145 prostate
  TGI: > 100 µM
EKVX NSCLC
  TGI: > 100 µM
HCC-2998 colon
  TGI: > 100 µM
HCT-116 colon
  TGI: > 100 µM
HCT-15 colon
  TGI: > 100 µM
HL-60(TB) leukemia
  TGI: > 100 µM
HOP-62 NSCLC
  TGI: > 100 µM
HOP-92 NSCLC
  TGI: > 100 µM
HS 578T breast
  TGI: > 100 µM
HT29 colon
  TGI: > 100 µM
IGROV1 ovarian
  TGI: > 100 µM
K-562 leukemia
  TGI: > 100 µM
LOX IMVI melanoma
  TGI: > 100 µM
M14 melanoma
  TGI: > 100 µM
MALME-3M melanoma
  TGI: > 100 µM
MCF7 breast
  TGI: > 100 µM
MDA-MB-231 breast
  TGI: > 100 µM
MDA-N
  TGI: > 100 µM
MOLT-4 leukemia
  TGI: > 100 µM
NCI-H226 lung
  TGI: > 100 µM
NCI-H23 lung
  TGI: > 100 µM
NCI-H460 lung
  TGI: > 100 µM
NCI-H522 lung
  TGI: > 100 µM
NCI/ADR-RES ovarian
  TGI: > 100 µM
OVCAR-5 ovarian
  TGI: > 100 µM
OVCAR-8 ovarian
  TGI: > 100 µM
PC-3 prostate
  TGI: > 100 µM
RPMI-8226 leukemia
  TGI: > 100 µM
RXF 393 renal
  TGI: > 100 µM
SF-268 CNS
  TGI: > 100 µM
SF-295 CNS
  TGI: > 100 µM
SK-MEL-2 melanoma
  TGI: > 100 µM
SK-MEL-28 melanoma
  TGI: > 100 µM
SK-MEL-5 melanoma
  TGI: > 100 µM
SK-OV-3 ovarian
  TGI: > 100 µM
SN12C renal
  TGI: > 100 µM
SNB-19 CNS
  TGI: > 100 µM
SNB-75 CNS
  TGI: > 100 µM
SR leukemia
  TGI: > 100 µM
SW-620 colon
  TGI: > 100 µM
T-47D breast
  TGI: > 100 µM
TK-10 renal
  TGI: > 100 µM
U251 CNS
  TGI: > 100 µM
UACC-257 melanoma
  TGI: > 100 µM
UACC-62 melanoma
  TGI: > 100 µM
UO-31 renal
  TGI: > 100 µM

## N#CC1=C(N)OC2=C(CCCc3ccc([N+](=O)[O-])cc32)C1c1ccccc1 (stereo not given)
786-0 renal
  TGI: 26.9 µM
A498 renal
  TGI: 10.5 µM
A549 NSCLC
  TGI: > 100 µM
ACHN renal
  TGI: 45.2 µM
BT-549 breast
  TGI: 29.7 µM
CAKI-1 renal
  TGI: > 100 µM
COLO 205 colon
  TGI: 13.7 µM
DU-145 prostate
  TGI: 15.4 µM
EKVX NSCLC
  TGI: 35.2 µM
HCC-2998 colon
  TGI: 6.41 µM
HCT-116 colon
  TGI: 16 µM
HCT-15 colon
  TGI: 16.7 µM
HL-60(TB) leukemia
  TGI: 4.19 µM
HOP-62 NSCLC
  TGI: 17.4 µM
HOP-92 NSCLC
  TGI: 44.9 µM
HS 578T breast
  TGI: > 100 µM
HT29 colon
  TGI: 12.2 µM
IGROV1 ovarian
  TGI: 23.7 µM
K-562 leukemia
  TGI: 13.8 µM
KM12 colon
  TGI: 14.8 µM
LOX IMVI melanoma
  TGI: 19.6 µM
M14 melanoma
  TGI: 12.4 µM
MALME-3M melanoma
  TGI: 20.6 µM
MCF7 breast
  TGI: 15.2 µM
MDA-MB-231 breast
  TGI: > 100 µM
MDA-N
  TGI: 5.38 µM
MOLT-4 leukemia
  TGI: 18.7 µM
NCI-H226 lung
  TGI: 31 µM
NCI-H23 lung
  TGI: 36 µM
NCI-H460 lung
  TGI: 23.1 µM
NCI-H522 lung
  TGI: 10.9 µM
NCI/ADR-RES ovarian
  TGI: 7.45 µM
OVCAR-3 ovarian
  TGI: 6.33 µM
OVCAR-4 ovarian
  TGI: > 100 µM
OVCAR-5 ovarian
  TGI: 43.1 µM
OVCAR-8 ovarian
  TGI: 22.4 µM
PC-3 prostate
  TGI: 44.7 µM
RPMI-8226 leukemia
  TGI: 10.9 µM
RXF 393 renal
  TGI: 8.88 µM
SF-268 CNS
  TGI: 21.9 µM
SF-295 CNS
  TGI: 13.9 µM
SF-539 CNS
  TGI: 12.7 µM
SK-MEL-2 melanoma
  TGI: 34.1 µM
SK-MEL-28 melanoma
  TGI: 22.4 µM
SK-MEL-5 melanoma
  TGI: 13 µM
SK-OV-3 ovarian
  TGI: 58.5 µM
SN12C renal
  TGI: 20.4 µM
SNB-19 CNS
  TGI: 45.2 µM
SNB-75 CNS
  TGI: > 100 µM
SR leukemia
  TGI: 9.56 µM
SW-620 colon
  TGI: 15.7 µM
T-47D breast
  TGI: 30.5 µM
TK-10 renal
  TGI: 49.1 µM
U251 CNS
  TGI: 17.5 µM
UACC-257 melanoma
  TGI: 24.6 µM
UACC-62 melanoma
  TGI: 6.12 µM
UO-31 renal
  TGI: 20.9 µM
